Measurements from the NIST ThermoML archive (doi:10.1021/acs.jced.9b00327).
Numbers after ± are expanded uncertainties.

Experiment: mn = molality of the nth substance listed, in mol/kg
Conditions: 100 kPa, Liquid; for speed of sound: Single path-length method; for mass density: Vibrating tube method

NCCCC(=O)O [4-aminobutanoic acid] + O
Conditions | mass density [kg/m3] | speed of sound [m/s]
293.15 K, m1 = 0.09972 | 1000.99 ± 1.1 | 1491.4 ± 4.3
293.15 K, m1 = 0.1479 | 1002.31 ± 1.1 | 1495.4 ± 4.3
293.15 K, m1 = 0.1942 | 1003.57 ± 1.1 | 1499.3 ± 4.3
293.15 K, m1 = 0.2449 | 1004.94 ± 1.1 | 1503.5 ± 4.3
293.15 K, m1 = 0.2937 | 1006.23 ± 1.1 | 1507.6 ± 4.3
293.15 K, m1 = 0.3452 | 1007.58 ± 1.1 | 1511.8 ± 4.3
293.15 K, m1 = 0.3928 | 1008.82 ± 1.1 | 1515.7 ± 4.3
298.15 K, m1 = 0.09972 | 999.771 ± 1.1 | 1505 ± 4.4
298.15 K, m1 = 0.1479 | 1001.05 ± 1.1 | 1508.9 ± 4.3
298.15 K, m1 = 0.1942 | 1002.26 ± 1.1 | 1512.7 ± 4.3
298.15 K, m1 = 0.2449 | 1003.56 ± 1.1 | 1516.8 ± 4.3
298.15 K, m1 = 0.2937 | 1004.78 ± 1.1 | 1520.7 ± 4.3
298.15 K, m1 = 0.3452 | 1006.04 ± 1.1 | 1524.8 ± 4.3
298.15 K, m1 = 0.3928 | 1007.19 ± 1.1 | 1528.7 ± 4.2
303.15 K, m1 = 0.09972 | 998.354 ± 1.1 | 1517 ± 4.4
303.15 K, m1 = 0.1479 | 999.634 ± 1.1 | 1520.8 ± 4.3
303.15 K, m1 = 0.1942 | 1000.85 ± 1.1 | 1524.4 ± 4.3
303.15 K, m1 = 0.2449 | 1002.16 ± 1.1 | 1528.4 ± 4.3
303.15 K, m1 = 0.2937 | 1003.41 ± 1.1 | 1532.2 ± 4.3
303.15 K, m1 = 0.3452 | 1004.71 ± 1.1 | 1536.2 ± 4.3
303.15 K, m1 = 0.3928 | 1005.89 ± 1.1 | 1539.9 ± 4.2
308.15 K, m1 = 0.09972 | 996.682 ± 1.1 | 1527.4 ± 4.4
308.15 K, m1 = 0.1479 | 997.926 ± 1.1 | 1531.1 ± 4.3
308.15 K, m1 = 0.1942 | 999.104 ± 1.1 | 1534.6 ± 4.3
308.15 K, m1 = 0.2449 | 1000.37 ± 1.1 | 1538.5 ± 4.3
308.15 K, m1 = 0.2937 | 1001.56 ± 1.1 | 1542.1 ± 4.3
308.15 K, m1 = 0.3452 | 1002.8 ± 1.1 | 1546 ± 4.3
308.15 K, m1 = 0.3928 | 1003.92 ± 1.1 | 1549.6 ± 4.2
313.15 K, m1 = 0.09972 | 994.848 ± 1.1 | 1536.3 ± 4.3
313.15 K, m1 = 0.1479 | 996.089 ± 1.1 | 1539.8 ± 4.3
313.15 K, m1 = 0.1942 | 997.262 ± 1.1 | 1543.2 ± 4.3
313.15 K, m1 = 0.2449 | 998.525 ± 1.1 | 1547 ± 4.3
313.15 K, m1 = 0.2937 | 999.722 ± 1.1 | 1550.5 ± 4.3
313.15 K, m1 = 0.3452 | 1000.96 ± 1.1 | 1554.3 ± 4.3
313.15 K, m1 = 0.3928 | 1002.08 ± 1.1 | 1557.8 ± 4.2
318.15 K, m1 = 0.09972 | 992.851 ± 1.1 | 1543.7 ± 4.2
318.15 K, m1 = 0.1479 | 994.097 ± 1.1 | 1547.1 ± 4.2
318.15 K, m1 = 0.1942 | 995.285 ± 1.1 | 1550.4 ± 4.2
318.15 K, m1 = 0.2449 | 996.567 ± 1.1 | 1554 ± 4.2
318.15 K, m1 = 0.2937 | 997.781 ± 1.1 | 1557.5 ± 4.2
318.15 K, m1 = 0.3452 | 999.045 ± 1.1 | 1561.1 ± 4.2
318.15 K, m1 = 0.3928 | 1000.2 ± 1.1 | 1564.5 ± 4.2
